Measurements reported in PMC8263924 (The Journal of General Physiology, 2021).
Numbering of substitutions follows the chain as printed. Like-named read-outs stand apart in the source and are kept apart here.

What was measured:
Hv1 F150A = biological target: T1, Hv1 F150A (Homo sapiens, UniProt Q96D96, F150A); assay: Inhibition of proton currents, inside-out patch clamp, Hv1 F150A; format: cell-based
T1 sequence (Q96D96 1-273 F150A): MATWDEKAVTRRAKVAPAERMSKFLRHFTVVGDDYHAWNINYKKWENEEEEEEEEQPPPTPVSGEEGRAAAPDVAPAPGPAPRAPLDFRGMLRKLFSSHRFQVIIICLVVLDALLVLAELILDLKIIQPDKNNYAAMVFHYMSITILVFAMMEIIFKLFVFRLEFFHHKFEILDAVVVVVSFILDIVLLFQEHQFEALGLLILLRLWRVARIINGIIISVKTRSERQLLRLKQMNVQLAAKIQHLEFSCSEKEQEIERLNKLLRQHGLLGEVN

Hv1 WT [1] = biological target: T2, Hv1 WT (Homo sapiens, UniProt Q96D96); format: cell-based; settings: for IC50: IC50 ± SE, inside-out patch, +120 mV, pHin = pHout = 6.0; for Inhibition of Hv1 WT (comparison of potency): compounds tested at 50 µM, Fig. 5 E
T2 sequence (Q96D96 1-273): T1 sequence (Q96D96 1-273 F150A) with A150F

[2] = Solubility in recording solution; format: physicochemical; settings: concentrations >1 mM
Hv1 WT [3] = biological target: T2, Hv1 WT; settings: dimeric Hv1; ref Hong et al., 2015; cited from earlier work

Row | SMILES | IC50 (Hv1 F150A) | IC50 (Hv1 WT [1]; Hv1 WT) | further results
1 | Nc1nc2ccccc2[nH]1 [ABI, 2-aminobenzimidazole] | 0.018 ± 0.001 µM | 553 ± 43 µM | Inhibition of Hv1 F150A (comparison with ABTA) (Hv1 F150A; ABI at 100 nM versus ABTA at 500 nM): much larger inhibition than ABTA; Inhibition of Hv1 F150A (Hv1 F150A; at 500 nM): saturated
2 | Nc1nc2cc(F)c(F)cc2[nH]1 [ABIF2, 5,6-difluoro-1H-1,3-benzodiazol-2-amine] | 0.012 ± 0.001 µM | 244 ± 19 µM | 
3 | Nc1nc2c(F)c(F)c(F)cc2[nH]1 [ABIF3, 4,5,6-trifluoro-1H-1,3-benzodiazol-2-amine] | 0.093 ± 0.006 µM | 699 ± 45 µM | Solubility under tested conditions [2]: not soluble at higher concentrations
4 | Nc1nc2c(F)cccc2[nH]1 [ABIFα, 4-fluoro-1H-1,3-benzodiazol-2-amine] | 0.04 ± 0.001 µM | 729 ± 56 µM | 
5 | Nc1nc2cc(F)ccc2[nH]1 [ABIFβ, 6-fluoro-1H-1,3-benzodiazol-2-amine] | 0.013 ± 0.001 µM | 312 ± 17 µM | 
6 | N=C(N)Nc1nc2ccccc2s1 [GBTA, 2-guanidino-benzothiazole] |  |  | Hill coefficient (Hv1 WT [3]): > 1
7 | Cc1[nH]c(N)nc1CCC(=O)c1cc(F)cc(F)c1.Cl [HIF, 3-(2-amino-5-methyl-1H-imidazol-4-yl)-1-(3,5-difluorophenyl)propan-1-one hydrochloride] |  | 13 ± 1 µM | IC50,HIFNF/IC50,HIF (Hv1 F150A; Hv1 F150A): ~7.0; IC50,HIFNF/IC50,HIF (Hv1 WT [1]; Hv1 WT): ~5.4
8 | Cc1[nH]c(N)nc1/C=C/C(=O)c1cc(F)cc(F)c1.Cl [HIFEN, (2E)-3-(2-amino-5-methyl-1H-imidazol-4-yl)-1-(3,5-difluorophenyl)prop-2-en-1-one hydrochloride] |  |  | h ± SE (Hill coefficient) (Hv1 WT [1]; Hv1 WT (dimeric), fit with Hill equation): ~1.5; Inhibition of Hv1 WT (comparison of potency) (Hv1 WT [1]; 50 µM): slightly more potent than HIF
9 | Cc1[nH]c(N)nc1CCC(=O)c1ccccc1.Cl [HIFNF, 3-(2-amino-5-methyl-1H-imidazol-4-yl)-1-phenylpropan-1-one hydrochloride] |  |  | IC50,ABI/IC50,HIFNF (Hv1 F150A; Hv1 F150A): ~0.05; IC50,ABI/IC50,HIFNF (Hv1 WT [1]; Hv1 WT): ~7.7
10 | Cc1[nH]c(N)nc1CCC(O)c1cc(F)cc(F)c1.Cl (stereo not shown) [HIFOH, 3-(2-amino-5-methyl-1H-imidazol-4-yl)-1-(3,5-difluorophenyl)propan-1-ol hydrochloride] |  |  | Inhibition of Hv1 WT (comparison of potency) (Hv1 WT [1]): less effective at reducing the proton current than HIF, HIFNH, and HIFEN
